Data from patent US20210115044A1, “TRICYCLIC HETEROCYCLE COMPOUNDS USEFUL AS HIV INTEGRASE INHIBITORS” (Merck Sharp & Dohme Corp., priority 2018, published 2021).
Like-named read-outs stand apart in the source and are kept apart here.

System: HIV-1 (H9/IIIB strain)
Assay: Multiple round HIV-1 infection assay in MT4-GFP cells (wild type cell assay, Viking)
Type: cell-based
Conditions: MT4-GFP cells infected with HIV-1 H9/IIIB, inhibition of reproductive ratio R0, ~48 h and ~72 h post-infection
Procedure: The antiviral activity of the Examples herein was assessed in an assay that measures the rate of replication of HIV in cell culture, and performed according to the following procedure. HIV-1 replication was monitored using MT4-gag-GFP clone D3 (hereafter designated MT4-GFP), which are MT-4 cells modified to harbor a GFP reporter gene, the expression of which is dependent on the HIV-1 expressed proteins tat and rev. Productive infection of an MT4-GFP cell with HIV-1 results in GFP expression approximately 24 h post-infection. MT4-GFP cells were maintained at 37° C./5% CO2/90% relative humidity in RPMI 1640 supplemented with 10% fetal bovine serum, 100 U/ml penicillin/streptomycin, and 400 μg/ml G418 to maintain the reporter gene. For infections, MT4-GFP cells were placed in the same medium lacking G418 and infected overnight with HIV-1 (H9/IIIB strain) virus at an approximate multiplicity of infection of 0.01 in the same incubation conditions. Cells were then washed and re-suspended in either RPMI 1640 at 2×10^5 cells/mL (0% NHS condition) or 100% normal human serum (NHS) at 2×10^5 cells/mL (100% NHS condition). Compound plates were prepared by dispensing compounds dissolved in DMSO into wells of 384 well poly-D-lysine-coated plates (0.2 μl/well) using an ECHO acoustic dispenser. Each compound was tested in a 10-point serial 3-fold dilution (typical final concentrations: 1050 nM-0.05 nM for 0% NHS condition or 42 μM-2.13 nM for 100% NHS condition). Controls included no inhibitor (DMSO only) and a combination of three antiviral agents (efavirenz, indinavir, an in-house integrase strand transfer inhibitor at final concentrations of 4 μM each). Cells were added ([…]) to compound plates and the infected cells were maintained at 37° C./5% CO2/90% relative humidity.
Infected cells were quantified at two time points, ˜48 h and ˜72 h post-infection, by counting the number of green cells in each well using an Acumen eX3 scanner. The increase in the number of green cells over ˜24 h period gives the reproductive ratio, R0, which is typically 5-15 and has been shown experimentally to be in logarithmic phase (data not shown). Inhibition of R0 is calculated for each well, and IC50s determined by non-linear 4-parameter curve fitting.

[1] = 0% NHS condition (RPMI 1640), read-out: WILD TYPE CELL ASSAY Viking IP (0% NHS)
[2] = 100% normal human serum condition, read-out: WILD TYPE CELL ASSAY Viking IP (100% NHS)
[3] = Human immunodeficiency virus 1, IIIB, 0% NHS condition (RPMI 1640), read-out: WILD TYPE CELL ASSAY Viking IP (0% NHS)

Row | IC50 [3] | SMILES | IC50 [1] | IC50 [2]
1 | – | CN1CC2(C)CC(O)c3c(C(=O)NCc4cccc(Cl)c4F)c(=O)c(O)c(n32)C1=O (stereo not drawn) [Compound 36] | 2.1 nM | 59.9 nM
2 | – | CCC12CC(O)c3c(C(=O)NCc4cccc(Cl)c4F)c(=O)c(O)c(n31)C(=O)N(C)C2 (single isomer, unassigned) [Compound 44] | 3.7 nM | 259 nM
3 | – | CC1C(O)c2c(C(=O)NCc3ccc(F)cc3F)c(=O)c(O)c3n2C1(C)CN(C)C3=O (single isomer, unassigned) [Compound 78] | 3.2 nM | 383 nM
4 | 1.7 nM | CN1CC2(C)CC(O)c3c(C(=O)NCc4c(F)ccc(Cl)c4F)c(=O)c(O)c(n32)C1=O (stereo not drawn) [Compound 31] | – | 268 nM
5 | – | CC1N(C)C(=O)c2c(O)c(=O)c(C(=O)NCc3ccc(F)cc3F)c3n2C1(C)CC3O (single isomer, unassigned) [Compound 65] | 1.7 nM | 107 nM
6 | – | CCC12CC(O)c3c(C(=O)NCc4c(F)ccc(Cl)c4F)c(=O)c(O)c(n31)C(=O)N(C)C2 (stereo not drawn) [Compound 56] | 3.4 nM | 891 nM
7 | – | CN1CC2(C)CC(O)c3c(C(=O)NCc4c(F)ccc(Cl)c4F)c(=O)c(O)c(n32)C1=O (stereo not drawn) [Compound 32] | 2.1 nM | 55.7 nM
8 | – | CN1CC2(C)CC(O)c3c(C(=O)NCc4cccc(Cl)c4F)c(=O)c(O)c(n32)C1=O (single isomer, unassigned) [Compound 34] | 2.1 nM | 178 nM
9 | – | CC1N(C)C(=O)c2c(O)c(=O)c(C(=O)NCc3ccc(F)cc3F)c3n2C1(C)CC3O (single isomer, unassigned) [Compound 68] | 2.4 nM | 45.5 nM
10 | – | CCC12CC(O)c3c(C(=O)NCc4c(F)cc(F)cc4F)c(=O)c(O)c(n31)C(=O)N(C)C2 (single isomer, unassigned) [Compound 46] | 1.6 nM | 36.8 nM
11 | 1.7 nM | CCC12CC(O)c3c(C(=O)NCc4c(F)ccc(F)c4F)c(=O)c(O)c(n31)C(=O)N(C)C2 (stereo not drawn) [Compound 51] | – | 32.2 nM
12 | – | CC1C(O)c2c(C(=O)NCc3ccc(F)cc3F)c(=O)c(O)c3n2C1(C)CN(C)C3=O (single isomer, unassigned) [Compound 75] | 2.5 nM | 172 nM
13 | – | CC1C(O)c2c(C(=O)NCc3ccc(F)cc3F)c(=O)c(O)c3n2C1(C)CN(C)C3=O (single isomer, unassigned) [Compound 76] | 2.5 nM | 237 nM
14 | – | CN1CC2(C)CC(O)c3c(C(=O)NCc4c(F)cc(F)cc4F)c(=O)c(O)c(n32)C1=O (stereo not drawn) [Compound 27] | 2.1 nM | 29 nM
15 | – | CC1N(C)C(=O)c2c(O)c(=O)c(C(=O)NCc3ccc(F)cc3F)c3n2C1(C)CC3O (single isomer, unassigned) [Compound 66] | 1.4 nM | 32.3 nM
16 | – | CC1N(C)C(=O)c2c(O)c(=O)c(C(=O)NCc3ccc(F)cc3F)c3n2C1(C)CC3O (single isomer, unassigned) [Compound 72] | 1.3 nM | 15.8 nM
17 | – | CCN1CC2(CCOC(F)F)CC(O)c3c(C(=O)NCc4ccc(F)cc4F)c(=O)c(O)c(n32)C1=O (single isomer, unassigned) [Compound 2] | 6.3 nM | 94.9 nM
18 | – | CCC12CC(O)c3c(C(=O)NCc4cccc(Cl)c4F)c(=O)c(O)c(n31)C(=O)N(C)C2 (single isomer, unassigned) [Compound 41] | 2.2 nM | 30.4 nM
19 | – | CCC12CC(O)c3c(C(=O)NCc4ccc(F)cc4F)c(=O)c(O)c(n31)C(=O)N(C)C2 (single isomer, unassigned) [Compound 38] | 1.2 nM | 32.5 nM
20 | 2.2 nM | CCC12CC(O)c3c(C(=O)NCc4c(F)ccc(Cl)c4F)c(=O)c(O)c(n31)C(=O)N(C)C2 (stereo not drawn) [Compound 55] | – | 93.6 nM
21 | – | CN1CC2(C)CC(O)c3c(C(=O)NCc4ccc(F)cc4)c(=O)c(O)c(n32)C1=O (stereo not drawn) [Compound 24] | 1.2 nM | 201 nM
